# Reference: patent publication US11286263B2, “Macrocyclic fluorine substituted indole derivatives” (The Broad Institute, Inc., priority 2017, dated 2022)
# Molecular target: BCL-XL (Homo sapiens (Human), UniProt Q07817)
# Assay: Protein-protein interaction assay BCL-XL/Bad BH3 peptide (BCL-XL assay), TR-FRET
# Assay type: binding
# Conditions: median
# Experimental: Assay 2 Protein-Protein Interaction Assay: BCL-XL/Bad BH3 Peptide (BCL-XL Assay)
# The dose-dependent inhibition by the compounds described in this invention of the interaction between BCL-XL and the BH3 domain of Bad (both human) was determined using a steady state binding competition assay with time-resolved fluorescence energy transfer (TR-FRET) readout. For that purpose BCL-XL (amino acids 1-212, C-terminal fused to a hexahistidine (6× His) tag (SEQ ID 3) and a synthetic Bad BH3-derived peptide of sequence Biotin-PEG2-PEG2-NLWAAQRYGRELRR-Nle-SDEFVDSFKK-amide (SEQ ID 4) served as protein receptor and tracer ligand respectively. The recombinant BCL-XL protein (expressed in Ecol) was purchased from BPS Bioscience (San Diego, Calif., USA). The Bad BH3-derived peptide can be obtained from e.g. Biosyntan (Berlin, Germany).
# In the assay 11 different concentrations of each compound (0.1 nM, 0.33 nM, 1.1 nM, 3.8 nM, 13 nM, 44 nM, 0.15 μM, 0.51 μM, 1.7 μM, 5.9 μM and 20 μM) were typically measured as duplicates in the same microtiter plate. For that, 100-fold concentrated DMSO solutions were prepared by serial dilutions (1:3.4) of a 2 mM stock solution in a clear, 384-well microtiter plate (Greiner Bio-One, Frickenhausen, Germany). From there, 50 nl were transferred in a dark test plate (Greiner Bio-One, Frickenhausen, Germany). The assay was initiated by addition of 2 μl of a 2,5-fold concentrated His-BCL-XL solution (usually for a 1 nM end concentration in 5 μl reaction volume) in aqueous assay buffer [50 mM Tris/HCl pH 7, 100 mM sodium chloride (NaCl), 50 μM potassium fluoride (KF), 0.005% Tween-20, 2 mM DTT, 0.1% bovine gamma globulin (BGG)] to the compounds in the assay plate. This was followed by a 10-minute incubation step at 22° C. for pre-equilibration of the putative complex between His-BCL-XL and the compounds. After that, 3 μl of a 1.67-fold concentrated solution (in assay buffer) consisting of Bad BH3-derived peptide (1 nM end concentration) and TR-FRET detection reagents [1.67 nM anti-His-Eu cryptate and 1.67 nM streptavidin-XL665 (both from Cisbio Bioassays, Codolet, France)], were added.
# The mixture was incubated in the dark for one hour at 22° C. and then overnight at 4° C. The formation of BCL-XL/Bad complexes was determined by measuring the resonance energy transfer of the anti-His-Eu-cryptate antibody to the streptavidin-XL665 present in the reaction. For that purpose, the fluorescence emission at 620 nm and 665 nm after excitation at 330-350 nm was measured in a TR-FRET measuring instrument, for instance a Rubystar or a Pherastar (both from BMG Lab Technologies, Offenburg, Germany) or a Viewlux (Perkin-Elmer). The ratio of the emission at 665 nm and at 622 nm was used as indicator of the amount of BCL-XL/Bad complexes present.
# The resulting data (ratio) were normalized, taking 0% inhibition as the mean value of control measurements (usually 32 data points) where all reagents were included. In this case 50 nl DMSO were used instead of compounds. A 100% inhibition corresponded to the mean value of control measurements (usually 32 data points) where all reagents except BCL-XL were included. IC50 values were determined by regression analysis based on a 4 parameter equation (minimum, maximum, IC50, Hill; Y=Max+(Min−Max)/(1+(X/IC50)^Hill) using the Screener Software (Genedata).
# BCL-XL, sequence (Q07817 1-212): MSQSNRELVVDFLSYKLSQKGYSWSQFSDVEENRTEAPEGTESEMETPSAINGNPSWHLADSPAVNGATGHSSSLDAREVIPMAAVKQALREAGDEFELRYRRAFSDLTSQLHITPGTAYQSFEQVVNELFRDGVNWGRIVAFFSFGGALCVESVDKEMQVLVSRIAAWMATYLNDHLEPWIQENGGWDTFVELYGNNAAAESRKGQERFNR
row,Compound,IC50 [µM]
1,"CCc1nn(C)c2c1-c1c(F)ccc3c(CCCOc4ccc(F)c5ccccc45)c(C(=O)O)n(c13)CCCCOC2 (single isomer, unassigned; enantiomer 1) [Example 42, 3-ethyl-4-fluoro-7-{3-[(4-fluoronaphthalen-1-yl)oxy]propyl}-1-methyl-1,10,11,12,13,15-hexahydropyrazolo[4′,3′:9,10][1,6]oxazacycloundecino[8,7,6-hi]indole-8-carboxylic acid (enantiomer 1)]",> 20
2,"CCc1nn(C)c2c1-c1c(F)ccc3c(CCCOc4cccc5ccccc45)c(C(=O)O)n(c13)CCCCOC2 (racemic) [Example 37, (rac)-12-ethyl-13-fluoro-10-methyl-1-(3-(naphthalen-1-yloxy)propyl)-4,5,6,7,9,10-hexahydro-pyrazolo[4′,3′:9,10][1]oxa[6]azacycloundecino[8,7,6-hi]indole-2-carboxylic acid]",> 20
3,"Cc1nn(C)c2c1-c1c(F)ccc3c(CCCOc4ccc(F)c5ccccc45)c(C(=O)O)n(c13)CCCCOC2 (racemic) [Example 33, (rac)-13-fluoro-1-(3-((4-fluoronaphthalen-1-yl)oxy)propyl)-10,12-dimethyl-4,5,6,7,9,10-hexahydropyrazolo[4′,3′:9,10][1]oxa[6]azacycloundecino[8,7,6-hi]indole-2-carboxylic acid]",> 20
4,"Cc1cc(OCCCc2c(C(=O)O)n3c4c(c(F)ccc24)-c2c(C)nn(C)c2COCCCC3)cc(C)c1Cl (racemic) [Example 36, (rac)-1-(3-(4-chloro-3,5-dimethylphenoxy)propyl)-13-fluoro-10,12-dimethyl-4,5,6,7,9,10-hexahydropyrazolo[4′,3′:9,10][1]oxa[6]azacycloundecino[8,7,6-hi]indole-2-carboxylic acid]",> 20
5,"CCc1c2c(nn1C)COCCCCn1c(C(=O)O)c(CCCOc3cc(C)c(Cl)c(C)c3)c3ccc(F)c-2c31 (racemic) [Example 31, (rac)-1-(3-(4-chloro-3,5-dimethylphenoxy)propyl)-12-ethyl-13-fluoro-11-methyl-4,5,6,7,9,11-hexahydropyrazolo[4′,3′:9,10][1]oxa[6]azacycloundecino[8,7,6-hi]indole-2-carboxylic acid]",> 20
6,"Cc1nn(C)c2c1-c1c(F)ccc3c(CCCOc4cccc5ccccc45)c(C(=O)O)n(c13)CCCCOC2 (racemic) [Example 10, (rac)-13-fluoro-10,12-dimethyl-1-(3-(naphthalen-1-yloxy)propyl)-4,5,6,7,9,10-hexahydro-pyrazolo[4′,3′:9,10][1]oxa[6]azacycloundecino[8,7,6-hi]indole-2-carboxylic acid]",> 20
7,"Cc1nn(C)c2c1-c1c(F)ccc3c(CCCOc4cccc5c4CCC5)c(C(=O)O)n(c13)CCCCOC2 (racemic) [Example 35, (rac)-1-(3-((2,3-dihydro-1H-inden-4-yl)oxy)propyl)-13-fluoro-10,12-dimethyl-4,5,6,7,9,10-hexahydropyrazolo[4′,3′:9,10][1]oxa[6]azacycloundecino[8,7,6-hi]indole-2-carboxylic acid]",> 20
8,"CCc1nn(C)c2c1-c1c(F)ccc3c(CCCOc4cccc5c4CCCC5)c(C(=O)O)n(c13)CCCCOC2 (racemic) [Example 44, (rac)-12-ethyl-13-fluoro-10-methyl-1-(3-((5,6,7,8-tetrahydronaphthalen-1-yl)oxy)propyl)-4,5,6,7,9,10-hexahydropyrazolo[4′,3′:9,10][1]oxa[6]azacycloundecino[8,7,6-hi]indole-2-carboxylic acid]",> 20
9,"Cc1c2c(nn1C)COCCCCn1c(C(=O)O)c(CCCOc3cccc4c3CCCC4)c3ccc(F)c-2c31 (racemic) [Example 18, (rac)-13-fluoro-11,12-dimethyl-1-(3-((5,6,7,8-tetrahydronaphthalen-1-yl)oxy)propyl)-4,5,6,7,9,11-hexahydropyrazolo[4′,3′:9,10][1]oxa[6]azacycloundecino[8,7,6-hi]indole-2-carboxylic acid]",> 20
10,"CCc1c2c(nn1C)COCCCCn1c(C(=O)O)c(CCCOc3cccc4cc(F)ccc34)c3ccc(F)c-2c31 (single isomer, unassigned; enantiomer 1) [Example 24, 3-ethyl-4-fluoro-7-{3-[(6-fluoronaphthalen-1-yl)oxy]propyl}-2-methyl-2,10,11,12,13,15-hexahydropyrazolo[4′,3′:9,10][1,6]oxazacycloundecino[8,7,6-hi]indole-8-carboxylic acid (enantiomer 1)]",> 20
11,"CCc1nn(C)c2c1-c1c(F)ccc3c(CCCOc4cccc5ccccc45)c(C(=O)O)n(c13)C/C=C\COC2 (racemic) [Example 11, (rac)-(Z)-12-ethyl-13-fluoro-10-methyl-1-(3-(naphthalen-1-yloxy)propyl)-4,7,9,10-tetrahydro-pyrazolo[4′,3′:9,10][1]oxa[6]azacycloundecino[8,7,6-hi]indole-2-carboxylic acid]",> 20
12,"CCc1c2c(nn1C)CN(C)CCCCn1c(C(=O)O)c(CCCOc3cccc4c3CCC4)c3ccc(F)c-2c31 (racemic) [Example 51, (rac)-7-[3-(2,3-dihydro-1H-inden-4-yloxy)propyl]-3-ethyl-4-fluoro-2,14-dimethyl-10,11,12,13,14,15-hexahydro-2H-pyrazolo[3′,4′:8,9][1,6]diazacycloundecino[10,11,1-hi]indole-8-carboxylic acid]",> 20
